The record followed here is doi:10.1101/735001v1 (bioRxiv, 2019).

Where a SMILES comes first, the peptide text is derived from it. [ ]: non-standard residue; d: D form. Dmt = Cc1cc(O)cc(C)c1C[C@H](N)C(=O)O

A short description of series [1]: Acrylamide dynamic quenching. Format: physicochemical.
The next series concerns LUVs containing 20% MLCL. The experiment in a line: Acrylamide dynamic quenching. Format: binding. The settings on record: 20 μM SS-31 with LUVs 20% MLCL, n=3.
For another series, the system named is LUVs containing 20% POPG. Put plainly: Acrylamide dynamic quenching. Format: binding. Particulars: 20 μM SS-31 with LUVs 20% POPG, n=3.
Series [2] relates to LUVs containing 20 mol% MLCL in POPC. The experiment in a line: Endogenous 2',6'-Dmt fluorescence measurement of SS-31 membrane binding. Particulars: 20% MLCL, mean (SD), n=6.
The subject of series [3] is LUVs containing 20 mol% TOCL in POPC. The series is described as above. The settings on record: for increase in SS-31 emission intensity relative to emission in the absence of LUVs: 20% TOCL, mean (SD), n=6, SD; for n value ([L]eff:[P] at saturation) from time course titration inflection point: 20 mol% TOCL.
The subject of series [4] is LUVs containing 20 mol% POPG in POPC. The description is as above. The settings on record: for increase in SS-31 emission intensity relative to emission in the absence of LUVs: 20% POPG, mean (SD), n=6, SD.
Series [5] relates to LUVs containing 10 mol% TOCL. Put plainly: SS-31 titration time course binding saturation analysis. The settings on record: low salt.
In a further series the test system is LUVs with POPC only. Put plainly: Endogenous 2',6'-Dmt fluorescence measurement of SS-31 membrane binding. Particulars: 100% POPC, high salt (100 mM KCl), 20 μM SS-31, [L]eff 100 µM, mean (SD), n=6.
Another series has as its system LUVs containing 20% TOCL. The experiment in a line: Acrylamide dynamic quenching. Format: binding. Particulars: 20 μM SS-31 with LUVs 20% TOCL, n=3.
Where [6] appears, read: aqueous buffer, comparison of SS-31 with L-Tyr (Fig. S3C), n=3.

As for `N[C@@H](Cc1ccc(O)cc1)C(=O)O` [L-Tyr, reference compound], the “Stern-Volmer constant KSV (acrylamide quenching)” value (“Stern-Volmer constant KSV” below) in [1] (setting [6]) worked out at 17.1 M⁻¹.

With `Cc1cc(O)cc(C)c1C[C@H](NC(=O)[C@H](N)CCCNC(=N)N)C(=O)N[C@@H](CCCCN)C(=O)N[C@@H](Cc1ccccc1)C(N)=O` [SS-31, D-Arg-2’6’-dimethylTyr-Lys-Phe-NH2] (H-[dR][Dmt]KF-NH2), the “Stern-Volmer constant KSV” value amounted to 1.04 M⁻¹ in the series on LUVs containing 20% MLCL (high salt); 0.02 M⁻¹ in the series on LUVs containing 20% MLCL (low salt); 2.19 M⁻¹ in the series with LUVs containing 20% POPG (high salt); 0.21 M⁻¹ in the series with LUVs containing 20% POPG (low salt); 5.4 M⁻¹ in series [1] (20 μM SS-31 in the absence of membranes, high salt (100 mM KCl)); 5.7 M⁻¹ in [1] (20 μM SS-31 in the absence of membranes, low salt). Also, the results for the “Stern-Volmer constant KSV” value (in series [1] (setting [6]); in the series on LUVs containing 20% TOCL (high salt); in the series with LUVs containing 20% TOCL (low salt)) were 4.8 M⁻¹, 1.20 M⁻¹ and 0.15 M⁻¹, respectively. The “increase in SS-31 emission intensity relative to emission in the absence of LUVs” value is on record as 1.79 (0.05) in series [2] (high salt (100 mM KCl)); 2.48 (0.05) in series [2] (low salt); 1.72 (0.08) in [3] (high salt (100 mM KCl)); 2.33 (0.07) in series [3] (low salt, 20 μM SS-31, [L]eff 100 µM); 1.45 (0.04) in [4] (high salt (100 mM KCl)); 2.16 (0.04) in series [4] (low salt). Moreover, the “increase in SS-31 emission intensity relative to emission in the absence of LUVs” value in the series with LUVs with POPC only is 1.08 (0.04). The “n value ([L]eff:[P] at saturation) from time course titration inflection point” value in series [3] (high salt) is recorded as ~ 9; in series [3] (low salt, SS-31 added in 2 µM increments, acrylamide in medium), ~ 5; in [4] (20 mol% POPG, low salt) it was about 11; in [5] it was ~ 12.
